Laboratory results as given in patent publication US20250145598A1, “ACID CERAMIDASE INHIBITORS AND USES THEREOF” (The Regents of the University of California, priority 2021, published 2025).

Target: T1, Acid ceramidase (Homo sapiens, UniProt Q13510)
T1 sequence (Q13510 22-395): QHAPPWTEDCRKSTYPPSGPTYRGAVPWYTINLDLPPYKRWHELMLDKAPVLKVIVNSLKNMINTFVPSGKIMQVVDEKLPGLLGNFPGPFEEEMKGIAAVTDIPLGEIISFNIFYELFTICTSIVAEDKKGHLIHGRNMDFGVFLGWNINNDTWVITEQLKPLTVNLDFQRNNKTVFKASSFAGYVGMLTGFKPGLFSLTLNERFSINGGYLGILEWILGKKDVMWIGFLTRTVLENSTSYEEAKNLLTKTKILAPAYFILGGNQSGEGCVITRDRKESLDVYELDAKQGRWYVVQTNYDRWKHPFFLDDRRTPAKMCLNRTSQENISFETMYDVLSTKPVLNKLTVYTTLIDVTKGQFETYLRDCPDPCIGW
Test: Acid ceramidase assay (AC in vitro IC50)
Type: biochemical
Conditions: Acid ceramidase assay data of example compounds

| Compound | IC50 |
| --- | --- |
| NS(=O)(=O)c1ccc(COc2ccc(-c3cn(C(=O)NCCCCc4ccccc4)cn3)cc2)cc1 [AC2020601-0284, N-(4-phenylbutyl)-4-(4-((4-sulfamoylbenzyl)oxy)phenyl)-1H-imidazole-1-carboxamide] | < 300 nM |
| CN1CCN(S(=O)(=O)c2ccc(COc3ccc(-c4cn(C(=O)NCCCOc5ccccc5)cn4)cc3)cc2)CC1 [AC2020601-0342, 4-(4-((4-((4-methylpiperazin-1-yl)sulfonyl)benzyl)oxy)phenyl)-N-(3-phenoxypropyl)-1H-imidazole-1-carboxamide] | < 300 nM |
| CS(=O)(=O)c1ccc(COc2ccc(-c3cn(C(=O)NCC4CCN(c5cc(F)ccc5F)C4)cn3)cc2)cc1 (stereo not drawn) [AC2020601-0496, N-((1-(2,5-difluorophenyl)pyrrolidin-3-yl)methyl)-4-(4-(4-(methylsulfonyl)benzyloxy)phenyl)-1H-imidazole-1-carboxamide] | < 300 nM |
| NC(=O)c1cccnc1COc1ccc(-c2cn(C(=O)NCC3CCN(c4ccccc4)C3)cn2)cc1 (stereo not drawn) [AC2020601-0438, 2-((4-(1-(((1-phenylpyrrolidin-3-yl)methyl)carbamoyl)-1H-imidazol-4-yl)phenoxy)methyl)nicotinamide] | < 300 nM |
| CS(=O)(=O)c1ccc(COc2ccc(-c3cn(C(=O)NCC4CCN(c5ccccc5)C4)cn3)cc2)nc1 (stereo not drawn) [AC2020601-0445, 4-(4-((5-(methylsulfonyl)pyridin-2-yl)methoxy)phenyl)-N-((1-phenylpyrrolidin-3-yl)methyl)-1H-imidazole-1-carboxamide] | < 300 nM |
| CS(=O)(=O)c1ccc(COc2ccc(-c3cn(C(=O)NCC4CC4)cn3)cc2)cc1 [AC2020601-0295, N-(cyclopropylmethyl)-4-(4-((4-(methylsulfonyl)benzyl)oxy)phenyl)-1H-imidazole-1-carboxamide] | < 300 nM |
| CNS(=O)(=O)c1ccc(COc2ccc(-c3cn(C(=O)NCCCOc4ccccc4)cn3)cc2)cc1 [AC2020601-0339, 4-(4-((4-(N-methylsulfamoyl)benzyl)oxy)phenyl)-N-(3-phenoxypropyl)-1H-imidazole-1-carboxamide] | < 300 nM |
| CCS(=O)(=O)c1ccc(COc2ccc(-c3cn(C(=O)NCC4CCN(c5ccccc5)C4)cn3)cc2)c(C(N)=O)c1 (stereo not drawn) [AC2020601-0431, 4-(4-(2-carbamoyl-4-(ethylsulfonyl)benzyloxy)phenyl)-N-((1-phenylpyrrolidin-3-yl)methyl)-1H-imidazole-1-carboxamide] | < 300 nM |
| Cn1cnc(COc2ccc(-c3cn(C(=O)NCC4CCN(c5ccccc5)C4)cn3)cc2)n1 (stereo not drawn) [AC2020601-0447, 4-(4-((1-methyl-1H-1,2,4-triazol-3-yl)methoxy)phenyl)-N-((1-phenylpyrrolidin-3-yl)methyl)-1H-imidazole-1-carboxamide] | < 300 nM |
| O=C(NCCCCc1ccccc1)n1cnc(-c2ccc(OCc3ccncc3)cc2)c1 [AC2020601-0323, N-(4-phenylbutyl)-4-(4-(pyridin-4-ylmethoxy)phenyl)-1H-imidazole-1-carboxamide] | < 300 nM |
| CS(=O)(=O)c1ccc(COc2ccc(-c3cn(C(=O)NCC4CN(c5ccccc5)C4)cn3)cc2)cc1 [AC2020601-0321, 4-(4-((4-(methylsulfonyl)benzyl)oxy)phenyl)-N-((1-phenylazetidin-3-yl)methyl)-1H-imidazole-1-carboxamide] | < 300 nM |
| CS(=O)(=O)c1ccc(COc2ccc(-c3cn(C(=O)NCC4CC(=O)N(c5ccccc5)C4)cn3)cc2)cc1 (stereo not drawn) [AC2020601-0443, 4-(4-((4-(methylsulfonyl)benzyl)oxy)phenyl)-N-((5-oxo-1-phenylpyrrolidin-3-yl)methyl)-1H-imidazole-1-carboxamide] | < 300 nM |

More lines, now with the values ahead:

| IC50 | Compound |
| --- | --- |
| < 300 nM | Cn1cc(COc2ccc(-c3cn(C(=O)NCC4CCN(c5ccccc5)C4)cn3)cc2)nn1 (stereo not drawn) [AC2020601-0489, 4-(4-((1-methyl-1H-1,2,3-triazol-4-yl)methoxy)phenyl)-N-((1-phenylpyrrolidin-3-yl)methyl)-1H-imidazole-1-carboxamide] |
| < 300 nM | CS(=O)(=O)c1ccc(COc2ccc(-c3cn(C(=O)NCC4CCN(c5ccc6c(c5)CCO6)C4)cn3)cc2)cc1 (stereo not drawn) [AC2020601-0506, N-((1-(2,3-dihydrobenzofuran-5-yl)pyrrolidin-3-yl)methyl)-4-(4-(4-(methylsulfonyl)benzyloxy)phenyl)-1H-imidazole-1-carboxamide] |
| > 3000 nM | CN(CCCCc1ccccc1)C(=O)n1cnc(-c2ccc(OCc3ccccc3)cc2)c1 [AC2020601-0278, 4-(4-(benzyloxy)phenyl)-N-methyl-N-(4-phenylbutyl)-1H-imidazole-1-carboxamide] |
| 301 to 3000 nM | CS(=O)(=O)c1ccc(CNC(=O)n2cnc(-c3ccc(OCc4ccc(S(C)(=O)=O)cc4)cc3)c2)cc1 [AC2020601-0303, N-(4-(methylsulfonyl)benzyl)-4-(4-((4-(methylsulfonyl)benzyl)oxy)phenyl)-1H-imidazole-1-carboxamide] |
| < 300 nM | CS(=O)(=O)c1ccc(COc2ccc(-c3cn(C(=O)NCC4CCN(c5cccc(C(F)(F)F)c5)C4)cn3)cc2)cc1 (stereo not drawn) [AC2020601-0498, 4-(4-((4-(methylsulfonyl)benzyl)oxy)phenyl)-N-((1-(3-(trifluoromethyl)phenyl)pyrrolidin-3-yl)methyl)-1H-imidazole-1-carboxamide] |
| < 300 nM | CCS(=O)(=O)c1ccc(COc2ccc(-c3cn(C(=O)NCC4CCN(c5ccccc5)C4)cn3)cc2)c(C#N)c1 (stereo not drawn) [AC2020601-0430, 4-(4-((2-cyano-4-(ethylsulfonyl)benzyl)oxy)phenyl)-N-((1-phenylpyrrolidin-3-yl)methyl)-1H-imidazole-1-carboxamide] |
| < 300 nM | Cc1nnc(COc2ccc(-c3cn(C(=O)NCC4CCN(c5ccccc5)C4)cn3)cc2)o1 (stereo not drawn) [AC2020601-0491, 4-(4-((5-methyl-1,3,4-oxadiazol-2-yl)methoxy)phenyl)-N-((1-phenylpyrrolidin-3-yl)methyl)-1H-imidazole-1-carboxamide] |
| < 300 nM | CC(C)n1cncc1COc1ccc(-c2cn(C(=O)NCC3CCN(c4ccccc4)C3)cn2)cc1 (stereo not drawn) [AC2020601-0478, 4-(4-((1-isopropyl-1H-imidazol-5-yl)methoxy)phenyl)-N-((1-phenylpyrrolidin-3-yl)methyl)-1H-imidazole-1-carboxamide] |
| < 300 nM | CS(=O)(=O)c1ccc(COc2ccc(-c3cn(C(=O)NCCCOc4ccc(S(F)(F)(F)(F)F)cc4)cn3)cc2)cc1 [AC2020601-0374] |
| < 300 nM | N#Cc1cccc(COc2ccc(-c3cn(C(=O)NCCCCc4ccccc4)cn3)cc2)c1 [AC2020601-0275, 4-(4-((3-cyanobenzyl)oxy)phenyl)-N-(4-phenylbutyl)-1H-imidazole-1-carboxamide] |
| < 300 nM | CC(C)n1ccc(COc2ccc(-c3cn(C(=O)NCC4CCN(c5ccccc5)C4)cn3)cc2)n1 (stereo not drawn) [AC2020601-0448, 4-(4-((1-isopropyl-1H-pyrazol-3-yl)methoxy)phenyl)-N-((1-phenylpyrrolidin-3-yl)methyl)-1H-imidazole-1-carboxamide] |
| < 300 nM | O=C(Nc1ccc(COc2ccc(-c3cn(C(=O)NCC4CCN(c5ccccc5)C4)cn3)cc2)cc1)C1CC1 (stereo not drawn) [AC2020601-0437, 4-(4-((4-(cyclopropanecarboxamido)benzyl)oxy)phenyl)-N-((1-phenylpyrrolidin-3-yl)methyl)-1H-imidazole-1-carboxamide] |
